According to patent US10350244B2, “Pharmaceutical composition for the treatment of diseases in which LPS- and/or apoptosis regulation is disturbed” (priority 2013, dated 2019):

What was measured:
Assay type in all cases: cell-based, human
[1] = system: MNC; test: IGF-1 protein determination (ELISA) in MNC incubations
Description: (§1) Peripheral blood mononuclear cells (PBMC, i.e., mononuclear cells (MNC)). This refers to mononuclear blood cells which have a round cell nucleus. These are, for example, lymphocytes and monocytes. Said cells play an important role in the immune system in controlling infections. PBMC or MNC are frequently employed in diagnostics as an indicator for infections which are present, as a factor for prognosing the course of an HIV infection and in clinical research. From the blood and sera collection of the tumor tissue bank and the tumor cells of an individual tumor patient that were likewise stored in said bank, they were, after passing through a specific thawing/revitalization procedure, examined for their protein and gene expression, apoptosis behavior and their released messenger substances (cytokine profiles) under the influence of the colostrum preparation Lactobin® N, vitamin D3 and also the combination in a specifically selected repertoire of methods.
The examinations were carried out in order to detect the cytokine insulin-like growth factor 1 (IGF-1) present in the samples. To this end, use was made of enzyme-linked immunosorbent assay (ELISA) sets (from Biosource International, California, USA) in accordance with the protocol instructions from the manufacturer. 50 μl of standard sample, control and the samples were pipetted per well into 96-well plates coated with anti-IGF-1. Thereafter, 50 μl of biotin conjugate (second antibody against IGF-1) were added. Subsequently, the plates were incubated at room temperature for 90 min, washed four times, and 100 μl of streptavidin-HRP working solution were pipetted into the wells and the plate was incubated at room temperature for 45 min. Thereafter, the plates were again washed four times, 100 μl of stabilized chromogen were added and incubated at room temperature for 30 min. Lastly, 100 μl of stop solution were pipetted. The results were read off on the ELISA reader at 450 nm (Dynatech Laboratories, Sullyfield, USA).
To prepare a preparation according to the invention, the above-described colostrum powder (preferably Lactobin N) was admixed with an appropriate amount of the vitamin D3-containing powder, achieving the inventive concentration of vitamin D3. A mixing ratio used according to the invention was 0.2 mg of the vitamin D3-containing powder per gram of colostrum powder (0.2 mg/g). This yielded 0.5 μg of vitamin D3/g of ready-made preparation for the samples. A recommended daily dose is 10 g of ready-made preparation, i.e., 5 μg of vitamin D3. […] Similarly, only the vitamin D3 preparation was used when the samples were treated only with vitamin D3 (e.g., “Vit. D3” in Table 1).

[2] = system: MNC; test: Cytokine production by MNC after incubation (Luminex immunobead multiplex assay)
Description: as §1
(§2) After collection, EDTA tubes were left to stand at room temperature (RT) for 60 min. Thereafter, serum was removed, divided into portions (1 ml/tube) and stored in −80° C. The blood was centrifuged at 311 g for 10 min. Thereafter, 1 part whole blood+5 parts lysis buffer were mixed, left to stand at RT for 15 min and then centrifuged at 311 g for 10 min. The supernatant was discarded and the pellet was washed with RPMI 1640 medium (repeated 3×). The cells were then counted and frozen at −170° C. in nitrogen at 5×10^6/ml (freezing medium: RPMI 1640 medium containing 5% DMSO, dimethyl sulfoxide=cryopreservation). In addition, the immune status was measured from one tube (FACS analysis, see below).
The cryotube to be thawed was removed from the nitrogen and immediately transferred to a 37° C. water bath. Once the cells had detached from the inner wall of the cryotube (1-1.5 min), they were transferred to a sterile 50 ml Falcon tube containing 40 ml of cold medium. After a 5-minute centrifugation at 400 g, the medium was removed, the cell pellet was resuspended in 6 ml of warmed-up medium and the cells were counted. […]
Interleukin (IL)-12 and proinflammatory factors such as […], IL-6, IFN-γ, TNF-α and anti-inflammatory factors such as IL-10 and IL-13 in the serum samples were measured in duplicate using an immunobead-based multiplex assay. The assays were carried out on a Bio-Plex system (Biosource).
The microspheres coated with mixtures of corresponding capture antibodies and the labeled detection antibodies were purchased from Biosource (Camarillo, […]). The reagents had already been tested and qualified by the manufacturer to rule out a cross-reactivity of the antibody-coated microspheres.
The Luminex measurements were carried out in order to determine further expressed MNC cytokines. 25 μl of antibody-coated microspheres were added to 96-well plates [mixture of the cytokines GM-CSF, IFN-γ, IL-1β, IL-2, IL-4, IL-5, IL-6, IL-8, IL-10 and TNF-α; ready-prepared kit, from Biosource International, California, USA]. After washing had been carried out twice, 50 μl of incubation buffer, 50 μl of ready-prepared sample dilution and 50 μl of sample were pipetted into each well. The plates were incubated in the dark on a shaker for 2 hours at room temperature and again washed twice. Thereafter, 100 μl of the biotinylated detection antibody were added to each well, incubated in the dark on a shaker for a further hour at room temperature, and again washed twice. 100 μl of SAV-RPE (R-phycoerythrin fluorescent dye, from Biosource International) were pipetted into each well, the plates were again shaken in the dark for 30 min at room temperature and washed three times. Each assay preparation was adjusted with 100 μl of wash buffer per well as the final volume and the plates were measured in the Luminex reader (Luminex 100, from Luminex Applied Systems, Sheffield, UK). […]

[3] = system: monocytes from the blood of patients with CRC; test: Gene expression in MNC/monocytes from blood of CRC patients (RT-qPCR); conditions: monocytes from blood of CRC patients UICC I to IV, 12-hour incubation, synergism in UICC I-III, FIG. 5
Method: as §2
RNA was extracted from MNCs and homogenized tumor tissue using the RNA Extraction Kit (Qiagen, Hilden, Germany), washed in DEPC 75% ethanol solution and then stored at −70° C. until it was processed further. The amount of RNA was determined by measuring absorption at 260 nm. The 260:280 ratio was determined within the 1.8-2.0 range; it was thus possible to prevent a contamination of the RNA by proteins. […]
The ‘real-time reverse transcription polymerase chain reaction’ method (real-time RT-PCR for short) is used for determining the expression of various genes. Said method allows the quantification of the expression of a gene in question in relation to the control genes. […]

[4] = MNC of CRC patients UICC I (n = 6)
[5] = MNC of CRC patients UICC II (n = 6)
[6] = MNC of CRC patients UICC III (n = 6)
[7] = MNC of CRC patients UICC IV (n = 6)

SMILES: C=C1CC[C@H](O)C/C1=C/C=C1\CCC[C@]2(C)[C@@H]([C@H](C)CCCC(C)C)CC[C@@H]12 [Vit D3, cholecalciferol]
- IGF-1 [1, 4]: 148.6 ng/mL
- IGF-1 [1, 5]: 213.4 ng/mL
- IGF-1 [1, 6]: 299.1 ng/mL
- IGF-1 [1, 7]: 896.4 ng/mL
- IGF-1 ([1]; MNC of Control (n = 6)): 90.3 ng/mL
- IFN-γ [2, 4]: 58.5 pg/mL
- IL-1β [2, 4]: 42.5 pg/mL
- IL-6 [2, 4]: 98.7 pg/mL
- IL-10 [2, 4]: 18.3 pg/mL
- IL-12 [2, 4]: 74.9 pg/mL
- IL-13 [2, 4]: 30.1 pg/mL
- TNF-α [2, 4]: 83.6 pg/mL
- IFN-γ [2, 5]: 77.3 pg/mL
- IL-1β [2, 5]: 34.8 pg/mL
- IL-6 [2, 5]: 102.8 pg/mL
- IL-10 [2, 5]: 18.1 pg/mL
- IL-12 [2, 5]: 80.1 pg/mL
- IL-13 [2, 5]: 27.9 pg/mL
- TNF-α [2, 5]: 169.1 pg/mL
- IFN-γ [2, 6]: 215.9 pg/mL
- IL-1β [2, 6]: 169.4 pg/mL
- IL-6 [2, 6]: 91.7 pg/mL
- IL-10 [2, 6]: 17.9 pg/mL
- IL-12 [2, 6]: 214.7 pg/mL
- IL-13 [2, 6]: 26.1 pg/mL
- TNF-α [2, 6]: 331.5 pg/mL
- IFN-γ [2, 7]: 292.5 pg/mL
- IL-1β [2, 7]: 369.9 pg/mL
- IL-6 [2, 7]: 213.1 pg/mL
- IL-10 [2, 7]: 7.9 pg/mL
- IL-12 [2, 7]: 499.9 pg/mL
- IL-13 [2, 7]: 9.1 pg/mL
- TNF-α [2, 7]: 413.1 pg/mL
- IFN-γ ([2]; MNC of Control (n = 6)): 12.8 pg/mL
- IL-1β ([2]; MNC of Control (n = 6)): 4.8 pg/mL
- IL-6 ([2]; MNC of Control (n = 6)): 3.3 pg/mL
- IL-10 ([2]; MNC of Control (n = 6)): 27.9 pg/mL
- IL-12 ([2]; MNC of Control (n = 6)): 47.7 pg/mL
- IL-13 ([2]; MNC of Control (n = 6)): 43.6 pg/mL
- TNF-α ([2]; MNC of Control (n = 6)): 62.6 pg/mL
- expression of the IGF-1 gene in MNC [3]: drop in the gene expression profile
